Assay results published in article PMC3059195 (Journal of medicinal chemistry, 2010).
Where two headings read alike, the source gives them in different places. Each block holds one compound with its values, some of them ahead of it.

Legend:
PPC-1 xenograft tumors = conditions: for tumor response compared with control group in first week: i.p. three times in first week at 50 mg/kg
[1] = In vitro plasma stability; type: in vitro ADME
[2] = test system: B6-Bcl-2 transgenic mice (B-cells overexpress human Bcl-2); assay: B6-Bcl-2 transgenic mouse spleen weight study; conditions: for tolerability / toxicity of treated mice: 60 μmol/kg i.p., single injection; for tolerability of treated mice: i.p. at 30 μmol/kg; for in vivo activity compared to 6a: dose of 60 μmol/kg (Figure 3A)
Bcl-XL = Bcl-XL (Homo sapiens, UniProt Q07817); assay: 2D [15N,1H]-HSQC binding to 15N-labeled Bcl-XL; conditions: ligand/protein ratio of 1:1
Sequence of Bcl-XL (Q07817 whole entry): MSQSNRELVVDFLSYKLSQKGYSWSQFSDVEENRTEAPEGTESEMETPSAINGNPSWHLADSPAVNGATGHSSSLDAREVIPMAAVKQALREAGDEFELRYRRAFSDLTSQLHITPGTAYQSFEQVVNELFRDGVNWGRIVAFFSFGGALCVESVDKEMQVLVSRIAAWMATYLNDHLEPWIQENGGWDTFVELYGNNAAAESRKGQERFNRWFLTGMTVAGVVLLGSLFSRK

primary CLL cells = assay: Annexin-V apoptosis assay, primary CLL cells; type: cell-based, human; conditions: one day Annexin-V apoptosis assay
[3] = administered orally; cited from earlier work
GST–Bcl-XL ΔTM protein = GST–Bcl-XL ΔTM protein (Homo sapiens, UniProt Q07817); assay: Fluorescence polarization assay; type: binding
Sequence of GST–Bcl-XL ΔTM protein (Q07817 1-211 limits assumed, stated change not applied): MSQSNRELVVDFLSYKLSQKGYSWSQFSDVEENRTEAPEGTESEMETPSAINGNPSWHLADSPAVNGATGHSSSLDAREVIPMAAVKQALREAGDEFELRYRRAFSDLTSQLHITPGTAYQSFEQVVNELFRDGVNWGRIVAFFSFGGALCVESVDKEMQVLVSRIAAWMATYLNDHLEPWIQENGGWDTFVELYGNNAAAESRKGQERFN

BP3 cell line = assay: Annexin V-FITC and propidium iodide apoptosis assay, BP3
[4] = test system: B6-Bcl-2 transgenic mice (B-cells overexpress human Bcl-2); conditions: ip, 60 umol/kg

Compound: CC1=C(C2=C(C)C(=O)c3c(cc(O)c(O)c3Cc3ccccc3)C2=O)C(=O)c2cc(O)c(O)c(Cc3ccccc3)c2C1=O [Compound 6i, 5,5′-dibenzyl-6,6′,7,7′-tetrahydroxy-3,3′-dimethyl-2,2′-binaphthyl-1,1′,4,4′-tetraone]
- survival of treated mice in first week (PPC-1 xenograft tumors; mouse, in vivo): died
- degraded after 1 h incubation in rat plasma preparations (second statement) [1]: 5%
- tolerability / toxicity of treated mice [2]: died
- tolerability of treated mice [2]: well tolerated
- binding to Bcl-XL by 2D [15N,1H]-HSQC, qualitative (Bcl-XL): strong binding

Compound: CC1=C(C2=C(C)C(=O)c3c(cc(O)c(O)c3C(=O)NCC(C)c3ccccc3)C2=O)C(=O)c2cc(O)c(O)c(C(=O)NCC(C)c3ccccc3)c2C1=O (stereo not shown) [Compound 8a, 6,6′,7,7′-Tetrahydroxy-3,3′-dimethyl-1,1′,4,4′-tetraoxo-N^5,N^5′-bis(2-phenylpropyl)-1,1′,4,4′-tetrahydro-2,2′-binaphthyl-5,5′-dicarboxamide]
- tolerability / toxicity of treated mice [2]: died
- binding to Bcl-XL by 2D [15N,1H]-HSQC, qualitative (Bcl-XL): strong binding

Compound: CC1=C(C2=C(C)C(=O)c3c(cc(O)c(O)c3C(C)C)C2=O)C(=O)c2cc(O)c(O)c(C(C)C)c2C1=O [Compound 6a, 6,6′,7,7′-tetrahydroxy-5,5′-diisopropyl-3,3′-dimethyl-2,2′-binaphthyl-1,1′,4,4′-tetraone]
- LD50 primary CLL sample (first of two, Figure 2D) (primary CLL cells): > 30 µM
- LD50 primary CLL sample (second of two, Supplementary 3B) (primary CLL cells): > 30 µM
- LD50 primary CLL samples (Supplementary Figure 3A) (primary CLL cells): > 30 µM
- weight loss in first week (PPC-1 xenograft tumors; 50 mg/kg i.p. three times in first week): ~ 5%
- tumor response compared with control group in first week (PPC-1 xenograft tumors): strong tumor regression
- maximum tolerated dose (MTD) [3]: above 240 mg/kg
- degraded after 1 h incubation in rat plasma preparations (second statement) [1]: 23%
- percent of maximum reduction in spleen weight (biological activity) ([2]; 60 μmol/kg ip, maximum spleen shrinkage no more than 50%): 40%

- IC50 (GST–Bcl-XL ΔTM protein): 160 to 630 nM
Compound: CC1=C(C2=C(C)C(=O)c3c(cc(O)c(O)c3Cc3ccc(-c4ccccc4)cc3)C2=O)C(=O)c2cc(O)c(O)c(Cc3ccc(-c4ccccc4)cc3)c2C1=O [Compound 6m, 5,5′-bis(biphenyl-4-ylmethyl)-6,6′,7,7′-tetrahydroxy-3,3′-dimethyl-2,2′-binaphthyl-1,1′,4,4′-tetraone]

Compound: CC1=C(C2=C(C)C(=O)c3c(cc(O)c(O)c3CCC3CCCCC3)C2=O)C(=O)c2cc(O)c(O)c(CCC3CCCCC3)c2C1=O [Compound 6d, 5,5′-bis(2-cyclohexylethyl)-6,6′,7,7′-tetrahydroxy-3,3′-dimethyl-2,2′-binaphthyl-1,1′,4,4′-tetraone]
- tolerability / toxicity of treated mice [2]: no observed toxicity
- in vivo activity compared to 6a [2]: superior

Compound: ABT-737
- cytotoxic activity against BP3 cell lines (BP3 cell line): no cytotoxic activity

Compound: CC1=C(C2=C(C)C(=O)c3c(cc(O)c(O)c3CC3CCCC3)C2=O)C(=O)c2cc(O)c(O)c(CC3CCCC3)c2C1=O [Compound 6c, 5,5′-bis(cyclopentylmethyl)-6,6′,7,7′-tetrahydroxy-3,3′-dimethyl-2,2′-binaphthyl-1,1′,4,4′-tetraone]
- LD50 primary CLL samples (Supplementary Figure 3A) (primary CLL cells): 6.5 µM

Compound: CC1=C(C2=C(C)C(=O)c3c(cc(O)c(O)c3Cc3ccc(Cl)cc3)C2=O)C(=O)c2cc(O)c(O)c(Cc3ccc(Cl)cc3)c2C1=O [Compound 6l, 5,5′-bis(4-chlorobenzyl)-6,6′,7,7′-tetrahydroxy-3,3′-dimethyl-2,2′-binaphthyl-1,1′,4,4′-tetraone]
- tolerability / toxicity of treated mice [2]: died
- tolerability of treated mice [2]: well tolerated

Compound: Cc1cc2c(C(C)C)c(O)c(O)c(C=O)c2c(O)c1-c1c(C)cc2c(C(C)C)c(O)c(O)c(C=O)c2c1O [Compound 1, 1,1′,6,6′,7,7′-Hexahydroxy-5,5′-diisopropyl-3,3′-dimethyl-2,2′-binaphthyl-8,8′-dicarboxaldehyde]
- survival of treated mice in first week (PPC-1 xenograft tumors; 25 mg/kg, i.p.): died

Compound: CC1=C(C2=C(C)C(=O)c3c(cc(O)c(O)c3CCc3ccc(C)cc3)C2=O)C(=O)c2cc(O)c(O)c(CCc3ccc(C)cc3)c2C1=O [Compound 6f, 6,6′,7,7′-tetrahydroxy-3,3′-dimethyl-5,5′-bis(4-methylphenethyl)-2,2′-binaphthyl-1,1′,4,4′-tetraone]
- LD50 primary CLL sample (second of two, Supplementary 3B) (primary CLL cells): 15 µM
- tumor response compared with control group in first week (PPC-1 xenograft tumors): strong tumor regression
- degraded after 1 h incubation in rat plasma preparations (second statement) [1]: 14%
- tolerability / toxicity of treated mice [2]: no observed toxicity
- in vivo activity compared to 6a [2]: superior
- signs of toxicity ([2]; groups of seven mice, 60 μmol/kg): no evident signs of toxicity
- binding to Bcl-XL by 2D [15N,1H]-HSQC, qualitative (Bcl-XL): strong binding

Compound: CC1=C(C2=C(C)C(=O)c3c(cc(O)c(O)c3CC(C)C)C2=O)C(=O)c2cc(O)c(O)c(CC(C)C)c2C1=O [Compound 6b, 6,6′,7,7′-tetrahydroxy-5,5′-diisobutyl-3,3′-dimethyl-2,2′-binaphthyl-1,1′,4,4′-tetraone]
- percent of maximum reduction in spleen weight (biological activity) [4]: 60-80%
- spleen weight reduction [4]: 30-40%
- tolerability / toxicity of treated mice [2]: no observed toxicity
- in vivo activity compared to 6a [2]: superior
